Where a name gives a salt, the structure may show the parent alone. Blank lines part the entries; values can stand above or below the compound they belong to. No end group written: not given here. *: point of attachment. Myristoyl = CCCCCCCCCCCCCC(=O)*
Tests used:
Assay type in all cases: cell-based, human
[1] = system: hBASMCs; assay: Increase in [Ca2+]i evoked directly by stimuli in fluo-4-loaded hBASMCs; settings: for increase in [Ca2+]i evoked by the substance itself: hBASMCs from donors 1-3, PGE2 and sulprostone in Ca2+-free HBS; for effect of removal of extracellular Ca2+ on the peak increase in [Ca2+]i evoked by the stimulus: HBS vs Ca2+-free HBS (2.5 mM BAPTA added 37 s before the stimulus)
Protocol: (§1) Two methods were used to measure [Ca^2+]i in populations of hBASMCs. For measurements using a FlexStation III plate-reader (Molecular Devices, Sunnyvale, CA, USA), hBASMCs were seeded into 96-well plates (10^4 cells per well). After about 4 days, when the cells were confluent, the medium was replaced with SMGM-2 without serum or growth factor supplements, and the cells were used after a further 24 h. This period in serum-free medium increased by about 2-fold the amplitude of the increases in [Ca^2+]i evoked by histamine (results not shown). Cells were washed with HEPES-buffered saline (HBS: 135 mM NaCl, 5.9 mM KCl, 1.2 mM MgCl2, 1.5 mM CaCl2, 11.6 mM HEPES, 11.5 mM D-glucose, pH 7.3), and loaded with fluo-4 by incubation with fluo-4-AM (2 μM) in HBS (100 μL per well) containing pluronic F127 (0.02%, v/v) and probenecid (2.5 mM). After 1 h at 20 °C, the medium was replaced with HBS (100 μL per well) containing probenecid (2.5 mM). After a further incubation at 20 °C for 1 h, the medium was replaced with HBS (60–80 μL per well) or nominally Ca^2+-free HBS, and the cells were used immediately for experiments at 20 °C. In some experiments, BAPTA (2.5 mM) was added to HBS during the recording; this reduced the free [Ca^2+] of the HBS to ∼120 nM without affecting the pH. Drug additions (20 μL at 4 or 5 times the final concentration) were added automatically. Fluorescence from fluo-4 (excitation 485 nm, emission 525 nm) was recorded at 1.44-s intervals using Softmax Pro 5.4 (Molecular Devices). Fluorescence was calibrated to [Ca^2+]i from: [Ca^2+]i=KDCa×(F−Fmin/Fmax−F) where, KDCa is the equilibrium dissociation constant of fluo-4 for Ca^2+ (345 nM), F is the recorded fluorescence, and Fmin and Fmax are the fluorescence values recorded after addition of triton-X-100 (0.1%, v/v) with either BAPTA (10 mM, Fmin) or CaCl2 (10 mM, Fmax). Although treatment with triton-X-100 releases fluo-4 from cells into the medium, the fluo-4 fluorescence is captured with the same efficiency whether it is trapped within cells or dispersed within the small volume of the wells (unpublished observations). Fmax was determined for each well at the end of an experiment, and the average value was used for each column of 8 wells. Fmin was determined from parallel wells on each plate.
(§2) For measurements of [Ca^2+]i using an FDSS 7000 FLIPR (Hamamatsu), hBASMCs were seeded into 384-well plates (8000 cells per well) in 20 μL of SMGM-2 containing 5% serum. After 24 h, the medium was replaced with 15 μL of serum-free SMGM-2, and after a further 6 h the cells were loaded with Ca^2+ indicator by addition of FLIPR calcium 4 assay kit (Molecular Devices) supplemented with probenecid (2.5 mM). The exact composition of this ‘no-wash’ indicator kit is not disclosed by the manufacturer, but it contains fluo-4-AM and components that reduce background fluorescence. The manufacture’s stock solution was diluted 10-fold into HBSS containing BSA (0.1%, w/v) and HEPES (20 mM); 5 μL of this solution was then added to each well (containing 15 μL of serum-free SMGM-2). After 2 h at 37 °C in humidified air containing 5% CO2, the plate was used for experiments at 20 °C. Most additions (5 μL) were prepared in HBSS supplemented with HEPES (20 mM) and BSA (0.1%, w/v). For more prolonged incubations, drugs were diluted in the initial loading medium (to avoid changes in dye-loading during the ‘no wash’ protocol). Fluorescence signals (excitation at 480 nm, emission at 540 nm) were calibrated to [Ca^2+]i after measurement of Fmin and Fmax uniquely for each well, using a KDCa = 345 nM.
(§3) All concentration-effect relationships were determined by addition of different drug concentrations to individual wells in the same multi-well plate, rather than by sequential additions to the same well. […]

[2] = system: histamine-evoked Ca^2+ signals in hBASMCs; assay: Histamine-evoked Ca2+ signals in populations of fluo-4-loaded hBASMCs; settings: for effect on the inhibition of histamine-evoked Ca2+ signals by a maximally effective concentration of isoproterenol / effect on the sensitivity to isoproterenol of histamine-evoked Ca2+ signals: inhibitor pre-treatment 30 min, then isoproterenol 1 min; for effect on histamine-evoked Ca2+ signals: pre-treatment: 8-Br-cGMP, IBMX 20 min, forskolin 10 μM, NKH477 10 μM, butaprost 10 μM, TCS2510 1 μM 5 min
Protocol: as §1, §2, §3

[3] = system: intracellular cAMP in hBASMCs; assay: Intracellular cAMP in hBASMCs by [3H]-adenine labeling; settings: 5 min in HBS, TCS2510 1 μM; for effect on intracellular cAMP: PGE2 10 μM, butaprost 10 μM, [3H]-adenine labeling
Protocol: hBASMCs in 24-well plates (50,000 cells per well) were grown to confluence. The medium was then replaced with serum-free SMGM-2, and after 24 h this was supplemented with [^3H]-adenine (1 μCi per well, 18.4 Ci·mmol^−1). After 2 h at 37 °C in humidified air with 5% CO2, the medium was removed, and the cells were washed twice with HBS. The cells were stimulated at 20 °C in HBS. Incubations were terminated by removal of the medium, addition of ice-cold trichloroacetic acid (5%, 1 mL) and rapid freezing. This protocol ensured that only intracellular [^3H]-cAMP was detected. [^3H]-adenine nucleotides were separated by column chromatography, and the activity was determined by liquid scintillation counting using Ultra-gold scintillant. Results are presented as [^3H]-cAMP activity as a percentage of the sum of the activities of the fractions containing [^3H]-cAMP, [^3H]-ATP, [^3H]-ADP and [^3H]-AMP; henceforth, reported as [^3H]-cAMP (%).

Compound: 18:1 lysophosphatidic acid [LPA]
- increase in [Ca2+]i evoked by the substance itself [1]: Cells from all three donors responded

Compound: O=C(Nc1ncnc2c1ncn2[C@@H]1O[C@@H]2COP(=O)(O)OC2C1O)c1ccccc1 (stereo in doubt) [6-Bnz-cAMP]
- amplitude of the Ca2+ signals evoked by histamine, % of paired controls ([2]; 500 μM, 20 min pre-treatment, histamine 10 μM, n = 5): 54 ± 4%

- pIC50 for inhibition of histamine-evoked Ca2+ signals ([2]; pre-treatment 20 min, histamine 10 μM, n = 6): 3.32 ± 0.16
Compound: Nc1ncnc2c1nc(Br)n2[C@@H]1O[C@@H]2COP(=O)(O)O[C@H]2[C@H]1O [8-Br-cAMP]

Compound: CO[C@@H]1[C@@H]2OP(=O)(O)OC[C@H]2O[C@H]1n1c(Sc2ccc(Cl)cc2)nc2c(N)ncnc21 [8-pCPT-2′-O-Me-cAMP]
- amplitude of the Ca2+ signals evoked by histamine, % of paired controls ([2]; 300 μM pre-treatment, histamine 10 μM): 103 ± 8%

Compound: Nc1ncnc2c1ncn2[C@@H]1O[C@H](COP(=O)(O)OP(=O)(O)OP(=O)(O)O)[C@@H](O)[C@H]1O [ATP]
- increase in [Ca2+]i evoked by the substance itself [1]: cells from only one donor responded robustly to ATP (donor 3)

Compound: Cc1ccc(S(=O)(=O)c2c(C)cc(C)cc2C)cc1 [ESI-05, 4-methylphenyl-2,4,6-trimethylsulphone]
- effect on the concentration-dependent inhibition of histamine-evoked Ca2+ signals by isoproterenol ([2]; ESI-05 25 μM, 30 min in HBS, histamine 10 μM added 1 min after isoproterenol, n = 9): had no effect

Compound: Cl.Cl.O=S(=O)(NCCNCC=Cc1ccc(Br)cc1)c1cccc2cnccc12 [H89, N-[2-[[3-(4-bromophenyl)-2-propenyl]amino]ethyl]-5-isoquinolinesulfonamide dihydrochloride]
- effect on the inhibition of histamine-evoked Ca2+ signals by a maximally effective concentration of isoproterenol ([2]; histamine 10 μM, n = 9): had no significant effect
- effect on the sensitivity to isoproterenol of histamine-evoked Ca2+ signals ([2]; histamine 10 μM, n = 9): significantly reduced the sensitivity to isoproterenol

Compound: CCCCCCOC(=O)[C@]1(O)C[C@@H]2O[C@@]1(C)n1c3ccccc3c3c4c(c5c6ccccc6n2c5c31)C(=O)NC4 [KT5720, (9R,10S,12S)-2,3,9,10,11,12-hexahydro-10-hydroxy-9-methyl-1-oxo-9,12-epoxy-1H-diindolo[1,2,3-fg:3′,2′,1′-kl]pyrrolo[3,4-i][1,6]benzodiazocine-10-carboxylic acid, hexyl ester]
- effect on the inhibition of histamine-evoked Ca2+ signals by a maximally effective concentration of isoproterenol ([2]; histamine 10 μM, n = 9): had no significant effect
- effect on the sensitivity to isoproterenol of histamine-evoked Ca2+ signals ([2]; histamine 10 μM, n = 9): Neither KT5720 nor PKI-myr significantly affected

Compound: C=C[C@@]1(C)CC(=O)[C@]2(O)[C@@]3(C)[C@@H](O)CCC(C)(C)[C@@H]3C(OC(=O)CCN(C)C)[C@H](OC(C)=O)[C@@]2(C)O1.Cl (stereo partly drawn) [NKH477, N,N-dimethyl-(3R,4aR,5S,6aS,10S,10aR,10bS)-5-(acetyloxy)-3-ethenyldodecahydro-10,10b-dihydroxy-3,4a,7,7,10a-pentamethyl-1-oxo-1H-naphtho[2,1-b]pyran-6-yl ester β-alanine hydrochloride]
- effect on histamine-evoked Ca2+ signals [2]: mimicked the effect of isoproterenol

Compound: CCCCC[C@H](O)/C=C/[C@H]1[C@H](O)CC(=O)[C@@H]1C/C=C\CCCC(=O)O [PGE2, prostaglandin E2]
- increase in [Ca2+]i evoked by the substance itself [1]: directly evoked a significant increase in [Ca^2+]i
- effect on intracellular cAMP [3]: stimulated cAMP accumulation

Compound: Nc1ncnc2c1nc(Sc1ccc(Cl)cc1)n2[C@@H]1O[C@@H]2COP(O)(=S)O[C@H]2[C@H]1O (stereo partly shown) [Rp-8-CPT-cAMPS, Rp-8-CPT-cAMPs]
- effect on the inhibition of histamine-evoked Ca2+ signals by a maximally effective concentration of isoproterenol ([2]; histamine 10 μM, n = 9): had no significant effect
- effect on the sensitivity to isoproterenol of histamine-evoked Ca2+ signals ([2]; histamine 10 μM, n = 9): significant decrease in the sensitivity to isoproterenol, but the effect was small

Compound: O=C1CC[C@H](C=C[C@@H](O)Cc2ccccc2)N1CCCCCCc1nn[nH]n1 [TCS2510, (5R)-5-[(3S)-3-hydroxy-4-phenyl-1-buten-1-yl]-1-[6-(2H-tetrazol-5-yl)hexyl]-2-pyrrolidinone]
- effect on histamine-evoked Ca2+ signals [2]: inhibited the Ca^2+ signals evoked by histamine
- increase in [Ca2+]i evoked by the substance itself [1]: Neither butaprost nor TCS2510 evoked an increase in [Ca^2+]i
- effect on intracellular cAMP [3]: stimulated formation of cAMP
- production of cAMP at maximal concentration compared with forskolin, NKH477, isoproterenol or butaprost ([3]; equally effective in inhibiting histamine-evoked Ca2+ signals): far less

Compound: Cn1c(=O)c2c(ncn2C)n(C)c1=O [caffeine]
- increase in [Ca2+]i evoked by the substance itself [1]: A lack of response

Compound: C[N+](C)(C)CCOC(N)=O [carbachol, carbamylcholine chloride]
- effect of removal of extracellular Ca2+ on the peak increase in [Ca2+]i evoked by the stimulus [1]: unaffected
- increase in [Ca2+]i evoked by the substance itself [1]: cells from only one other donor responded robustly to carbachol (donor 2)

- EC50 ([1]; Homo sapiens, histamine alone, HBSS, n = 7, read-out: sensitivity to histamine (pEC50) (converted)): 1050 nM
Compound: NCCc1c[nH]cn1 [histamine, Histamine dihydrochloride]
- effect of removal of extracellular Ca2+ on the peak increase in [Ca2+]i evoked by the stimulus [1]: unaffected
- increase in [Ca2+]i evoked by the substance itself [1]: Cells from all three donors responded
- maximal amplitude of the peak increase in [Ca2+]i evoked by histamine ([1]; histamine alone, HBSS, n = 7): 242 ± 15 nM

Compound: CS(=O)(=O)NC(=O)CCC/C=C\C[C@H]1C(=O)C[C@@H](O)[C@@H]1/C=C/[C@@H](O)COc1ccccc1 [sulprostone, Sulprostone]
- increase in [Ca2+]i evoked by the substance itself [1]: also evoked an increase in [Ca^2+]i

Compound: bradykinin acetate (RPPGFSPFR; also: acetate salt; UniProt P01042 381-389, looked up)
- effect of removal of extracellular Ca2+ on the peak increase in [Ca2+]i evoked by the stimulus [1]: unaffected
- increase in [Ca2+]i evoked by the substance itself [1]: Cells from all three donors responded

Compound: myristoylated protein kinase inhibitor 14–22 amide (Myristoyl-SGRTGRRNA-NH2; SMILES CCCCCCCCCCCCCC(=O)N[C@@H](CO)C(=O)NCC(=O)N[C@@H](CCCNC(=N)N)C(=O)N[C@H](C(=O)NCC(=O)N[C@@H](CCCNC(=N)N)C(=O)N[C@@H](CCCNC(=N)N)C(=O)N[C@@H](CC(N)=O)C(=O)N[C@@H](C)C(N)=O)[C@@H](C)O; UniProt P61925 14-22, looked up, fragment) [PKI-myr]
- effect on the inhibition of histamine-evoked Ca2+ signals by a maximally effective concentration of isoproterenol ([2]; histamine 10 μM, n = 9): had no significant effect
- effect on the sensitivity to isoproterenol of histamine-evoked Ca2+ signals ([2]; histamine 10 μM, n = 9): Neither KT5720 nor PKI-myr significantly affected

Reference: article PMC5893132, “Selective inhibition of histamine-evoked Ca^2+ signals by compartmentalized cAMP in human bronchial airway smooth muscle cells” (Cell Calcium, 2018)
